For one data set, the system named is RelA [NF-κB p65]. The data set is described as follows: Immunofluorescence localisation of RelA in Caco-2 cells. Type of data set: cell-based.
Data set [1] concerns PPARγ. The data set is described as follows: Cellular distribution of PPARγ in Caco-2 cells (immunocytochemistry, western blot).
Another data set relates to Caco-2 cells. The data set is described as follows: Inflammatory cytokine gene expression in Caco-2 cells exposed to S. enteritidis (macroarray, Northern, real-time PCR). Type of data set: cell-based. To be noted: 10^8 S. enteritidis plus drug 10-30 μM, 2 hours, Northern. A general note: Real-time PCR tracks product formation cycle by cycle.
Data set [2] has as its system PPARγ. The data set is described as follows: Northern hybridisation of PPAR mRNA in Caco-2 cells. Type of data set: cell-based. To be noted: Caco-2 cells, 10^8 S. enteritidis plus 30 μM ligand, 2 hours.
Setting [3] is: 800 nM for 4 hours, cells treated with S. enteritidis alone.

`CCC(=C/[C@H](C)C/C=C/C(C)=C/[C@@H](C)C(=O)[C@@H](C)[C@H](O)[C@@H](C)C/C(C)=C/C(=O)O)/C=C/[C@@H]1OC(=O)C=C[C@@H]1C` [LMB, leptomycin B]: the “RelA in nuclei after inhibition of CRM-1-dependent nuclear export” value with RelA [NF-κB p65] (cells co-cultured with S. enteritidis and B. thetaiotaomicron) was “caused an accumulation of RelA in nuclei”. Also, in the data set on PPARγ [1] (Caco-2 cells, inhibitor treatment), the “Nucleocytoplasmic shuttling of PPARγ induced by co-culture of S. enteritidis and B. thetaiotaomicron” value is listed as “not blocked”.
For `CCCCC/C=C/C=C1/C(=O)C=C[C@@H]1C/C=C\CCCC(=O)O` [15d-PGJ2, 15-deoxy-Δ^12,14-prostaglandin J2, reference compound], the “Activation of inflammatory cytokine expression (TNF-α, IL-8, COX-2) by S. enteritidis” value with Caco-2 cells is given as “attenuated”. The “PPARγ mRNA after PPAR ligand” value in the data set on PPARγ [2] was “decreased”.
On to `CC(/C=C/C(=O)NO)=C\[C@@H](C)C(=O)c1ccc(N(C)C)cc1` [TSA, trichostatin A], for which, in the data set on RelA [NF-κB p65] (setting [3]), the “p65 nuclear accumulation after HDAC inhibition” value was “partial p65 accumulation”. The “Exit of PPARγ to cytosol after HDAC inhibition” value with PPARγ [1] (setting [3]) is “accelerated exit of PPARγ to cytosol”. The “PPARγ localisation in S. enteritidis-treated Caco-2 cells with inhibitor” value in the data set on PPARγ [1] (S. enteritidis-treated Caco-2 cells) was “induce punctate cytosolic labeling and export of PPARγ from the nucleus”.

These data come from patent publication US7998474B2, “Methods for treating an inflammatory disease of the bowel” (Rowett Research Institute, priority 2001, dated 2011).
